Measured values as given in ChEMBL document CHEMBL1201862, “PubChem BioAssay data set” (2004).
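Cultured in 96-well plates, cells were exposed to test compound for 48 hours across five concentrations. The concentration for 50% growth inhibition is given as GI50.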 Activity calls are given as the source filed them. Cut-off read from the data, not from the text of the source: active = GI50 up to about 1.1 µM and inactive = higher.

Assays:
Assay in all cases: NCI-60 cell line screen, 48 h
A498 = system: A498
A549 = system: A549
HOP-92 = system: HOP-92
Hs-578T = system: Hs-578T
MDA-MB-231 = system: MDA-MB-231
MDA-N = system: MDA-N
NCI-H23 = system: NCI-H23
NCI/ADR-RES = system: NCI/ADR-RES
OVCAR-4 = system: OVCAR-4
RPMI-8226 = system: RPMI-8226
SF-268 = system: SF-268
SK-MEL-28 = system: SK-MEL-28
SR = system: SR
U-251 = system: U-251
UACC-62 = system: UACC-62
UO-31 = system: UO-31
HOP-62 = system: HOP-62
Malme-3M = system: Malme-3M
SNB-75 = system: SNB-75

Row | SMILES | GI50 (A498) | GI50 (A549) | GI50 (HOP-92) | GI50 (Hs-578T) | GI50 (MDA-MB-231) | GI50 (MDA-N) | GI50 (NCI-H23) | GI50 (NCI/ADR-RES) | GI50 (OVCAR-4) | GI50 (RPMI-8226) | GI50 (SF-268) | GI50 (SK-MEL-28) | GI50 (SR) | GI50 (U-251) | GI50 (UACC-62) | GI50 (UO-31) | GI50 (HOP-62) | GI50 (Malme-3M) | GI50 (SNB-75)
1 | COc1ccc(C2c3cc4c(c(OC)c3CC3OCC(=O)C32)OCO4)cc1OC (stereo unspecified) | 0.0783 µM (active) | 0.0647 µM (active) | 25 µM (inactive) | < 0.01 µM (active) | 0.209 µM (active) | < 0.01 µM (active) | 0.0365 µM (active) | 0.0377 µM (active) | 0.0364 µM (active) | 0.0501 µM (active) | 0.416 µM (active) | 31.9 µM (inactive) | < 0.01 µM (active) | 0.0504 µM (active) | 0.0531 µM (active) | 0.074 µM (active) |  |  | 
2 | CC(=O)N(C(C)=O)c1cc2c3c(c1)CCCN3CCC2 | > 10 µM (inactive) | > 10 µM (inactive) | > 10 µM (inactive) | > 10 µM (inactive) | > 10 µM (inactive) | > 10 µM (inactive) | > 10 µM (inactive) | > 10 µM (inactive) | > 10 µM (inactive) | > 10 µM (inactive) | > 10 µM (inactive) | > 10 µM (inactive) | > 10 µM (inactive) | > 10 µM (inactive) | > 10 µM (inactive) |  | > 10 µM (inactive) | > 10 µM (inactive) | > 10 µM (inactive)
3 | Cc1cc(S(=O)(=O)N2CCNNC2=O)c(S)cc1Cl | > 100 µM (inactive) | 56.4 µM (inactive) | 48.4 µM (inactive) | > 100 µM (inactive) | 23.8 µM (inactive) | > 100 µM (inactive) |  | > 100 µM (inactive) | > 100 µM (inactive) | 71.4 µM (inactive) | > 100 µM (inactive) | 20 µM (inactive) | > 100 µM (inactive) | > 100 µM (inactive) | > 100 µM (inactive) | > 100 µM (inactive) |  | 17.7 µM (inactive) | > 100 µM (inactive)
4 | CCC1CCC2c3c([nH]c4ccc(C)cc34)C3C(=O)N(N(C)C)C(=O)C3C2C1 (stereo unspecified) | > 100 µM (inactive) | 15.9 µM (inactive) | 38.7 µM (inactive) | 4.91 µM (inactive) | 72.8 µM (inactive) | 1.09 µM (active) | > 67.3 µM (inactive) | 4.35 µM (inactive) | 34 µM (inactive) | 19 µM (inactive) | 7.62 µM (inactive) | > 83.4 µM (inactive) | 3.17 µM (inactive) | 19.5 µM (inactive) | 17.6 µM (inactive) | > 75 µM (inactive) | > 27 µM (inactive) | 1.02 µM (active) | 
5 | COc1ccc(/C=C/C(=O)N[C@@H]2C(=O)N3[C@@H]2SC(C)(C)[C@@H]3C(=O)O)cc1 | > 100 µM (inactive) | > 100 µM (inactive) | 47.8 µM (inactive) | > 100 µM (inactive) | > 100 µM (inactive) | > 100 µM (inactive) | > 100 µM (inactive) | > 100 µM (inactive) | > 100 µM (inactive) | > 100 µM (inactive) | > 100 µM (inactive) | > 100 µM (inactive) | > 100 µM (inactive) | > 100 µM (inactive) | > 100 µM (inactive) | > 100 µM (inactive) | > 100 µM (inactive) |  | > 100 µM (inactive)
6 | O=c1c(Cc2ccccc2)c(-c2ccccc2)[nH]n1C1=NCCN1 | > 100 µM (inactive) | 40.5 µM (inactive) | 44.7 µM (inactive) | 39.4 µM (inactive) | > 100 µM (inactive) | 38.5 µM (inactive) | 62.5 µM (inactive) | 27.7 µM (inactive) | 54.2 µM (inactive) | 47 µM (inactive) | 28.4 µM (inactive) |  | 22.8 µM (inactive) | 33.6 µM (inactive) | 32.2 µM (inactive) | 42.6 µM (inactive) | 56 µM (inactive) | 25.4 µM (inactive) | 22 µM (inactive)
7 | CCCCCCCCCC(=O)OCC1(CO)C/C(=C/CC(C(C)C)C(C)C)C(=O)O1 (stereo unspecified) | 53.3 µM (inactive) | 26.6 µM (inactive) | > 100 µM (inactive) | 27 µM (inactive) | 51.3 µM (inactive) | 87.1 µM (inactive) | > 100 µM (inactive) | > 100 µM (inactive) | 61.2 µM (inactive) |  | > 100 µM (inactive) | 71.3 µM (inactive) | 26.2 µM (inactive) | 26.7 µM (inactive) | 49.2 µM (inactive) | 28.7 µM (inactive) | 30 µM (inactive) | 23 µM (inactive) | 78 µM (inactive)
8 | Cc1nc(N)c(N2CCN(C(=O)O)CC2)c(O)n1 | > 100 µM (inactive) | > 100 µM (inactive) | > 100 µM (inactive) | > 100 µM (inactive) | > 100 µM (inactive) | > 100 µM (inactive) | > 100 µM (inactive) | > 100 µM (inactive) | > 100 µM (inactive) | > 100 µM (inactive) | > 100 µM (inactive) | > 100 µM (inactive) | > 100 µM (inactive) | > 100 µM (inactive) |  | > 100 µM (inactive) | > 100 µM (inactive) | > 100 µM (inactive) | > 100 µM (inactive)
